Earlier results as cited in paper PMC10537421, “Co-Dispersion Delivery Systems with Solubilizing Carriers Improving the Solubility and Permeability of Cannabinoids (Cannabidiol, Cannabidiolic Acid, and Cannabichromene) from Cannabis sativa (Henola Variety) Inflorescences” (Pharmaceutics, 2023).
Read-outs that look alike come from different tables or passages of the source.

How the values were obtained:
[1] = for bioavailability: oral administration; for bioavailability after inhalation: smoking or vaporizing
[2] = for CBD released: SIF and SGF

| Compound | bioavailability after sublingual administration [1] | bioavailability [1] | bioavailability after inhalation [1] | pKa (approximate) | CBD released ([2]; 1 h) | CBD released ([2]; 48 h) | CBD detected after SIF digestion (bioaccessibility) ([2]; simulated intestinal fluid) [%] | pKa |
| --- | --- | --- | --- | --- | --- | --- | --- | --- |
| CCCCCc1cc(O)c2c(c1)OC(C)(C)[C@@H]1CCC(C)=C[C@@H]21 [THC, tetrahydrocannabinol] | 13–14% | 4–12% | 10% to 35% | – | – | – | – | – |
| C=C(C)[C@@H]1CCC(C)=C[C@H]1c1c(O)cc(CCCCC)c(C(=O)O)c1O [CBDA, cannabidiolic acid] | – | – | – | ~2.9 | – | – | – | – |
| C=C(C)[C@@H]1CCC(C)=C[C@H]1c1c(O)cc(CCCCC)cc1O [CBD, cannabidiol] | 13–19% | ≈ 6% | 11–45% | – | less than 3% | less than 10% | 29 | 9.3–10.3 |
| CCCCCc1cc(O)c2c(c1)OC(C)(CCC=C(C)C)C=C2 (stereo not drawn) [CBC, cannabichromene] | – | – | – | 9.5–10.3 | – | – | – | – |
